Reference: patent US6358517B1, “Cosmetic compositions containing resveratrol and retinoids” (Unilever Home & Personal Care USA, division of Conopco, priority 1999, dated 2002)

Key:
[1] = tested on: Cellular Retinoic Acid Binding Protein 2 (CRABP-2); test: CRABP-2 expression in pig skin organ culture (epidermis), Western blot; assay type: cell-based; conditions: for effects on CRABP-2 expression (in words): alone, pig skin epidermis, summary of Table 1
Method: 7 mm pig skin biopsies were taken, plated in serum free DMEM, and incubated for 2 days. The media was then switched to phenol-red free media. The biopsies were topically treated with resveratrol for 24 hrs in 5 μl ethanol per biopsy. After 24 hours, retinoids were topically applied to the biopsies. The treated biopsies were incubated for 4 days thereafter. After treatment phase, the biopsies were rinsed in 1×phosphate-buffer twice and then frozen at −20° C. for future use. The epidermis and dermis was separated by freezing and scraping off the epidermis. The epidermis was collected and homogenized in lysis buffer (contains 1×PBS, 1% TritonX, 0.5% sodium deoxycholate, 0.1% SDS containing protease inhibitor (10 mg/ml PMSF in isopropanol at 10 μl/ml, Aprotinin 30 μl/ml and 100 mM sodium orthovanadate at 10 μl/ml). This homogenate was then spun at 14000 rpm and the supernatant was collected for determining protein (aliquot of the supernatant for protein determination).
Within the cells, retinol and retinoic acid are bound to specific cellular binding proteins. […] These proteins regulate the intracellular concentration of retinoids by acting as either storage or shuttle proteins in retinoid metabolism. The levels of CRABP protein are regulated by the amount of retinoic acid within the cells. Higher cellular levels of retinoids increase the expression of CRABP-2. Therefore, the amount of this protein in the cells, is a measure of the retinoid activity of the cells. Skin cells contain high levels of CRABP-2 both in the epidermis and the dermis. […] Increase in CRABP-2 is also associated with increased epidermal differentiation, and dermal retinoid action. Therefore, in these studies we used CRABP-2 expression of fibroblasts and pig skin epidermis as a measure of retinoid activity leading to increased epidermal differentiation (skin conditioning and dry skin benefit) and dermal collagen and extracellular matrix synthesis (antiaging, anti wrinkling benefits).
To measure the levels of CRABP-2 in the fibroblast and pig skin extracts prepared as described above, the cell supernatant was re-suspended in 4×sample buffer and 10% BME, boiled for 5 minutes and used for western blotting. […] The gels were transferred to PVDF membranes and Western Blotting was carried out using monoclonal antibodies to CRABP-2 according to standard procedures. The CRABP-2 protein band was visualized in the Western Blots using the chemiluminescence system obtained from Boehringer Mannheim (Indianopolis, Ind.). The bands in the film were quantified by densitometric scanning, the data from triplicate samples were calculated as % of control and expressed in the following tables as % increase over control (with control as 100%) +/− standard deviation.

[2] = tested on: Cellular Retinoic Acid Binding Protein 2 (CRABP-2); test: CRABP-2 expression in human adult skin fibroblasts, Western blot; assay type: cell-based; conditions: for CRABP-2 expression in skin fibroblasts in combination with resveratrol (in words): retinoid combined with resveratrol, summary of Tables 2A and 2B
Method: Human adult fibroblasts obtained from sun-protected inner arm of the […] were used. Cells were grown in 1:1 DMEM/Hams F12 media containing 10% FBS, maintained at 37° C. in a 5% CO2 atmosphere under normal atmospheric oxygen tension. Third passage adult fibroblasts were grown in DMEM media with 10% FBS in 12-well plates at a seeding density of 40,000 cells/ml/well. The cells at 80% confluence were rinsed in serum free and phenol red free (PRF) DMEM media twice. Cells were pretreated with resveratrol for 4 hours was conducted and then dosed with retinoids and incubated for a further 48 hours. After the incubation, the wells were washed twice with 1×PBS and the cell monolayer was harvested in 100 μl cell lysis buffer (contained 1×PBS, 1% TritonX, 0.5% sodium deoxycholate, 0.1% SDS containing protease inhibitor (10 mg/ml PMSF in isopropanol, 10 μl/ml). The suspension was spun at 14000 rpm for 10 minutes, the supernatant collected and an aliquot of this supernatant was used for protein quantification. Protein concentration was determined using Pierce protein kit. The remainder of 1 00ul supernatant (cell lysate) was denatured in a mixture of 40 μl sample buffer (NOVEX) and 0.5% Beta mercaptoethanol (BME) and by boiling the sample for 5 minutes.
Within the cells, retinol and retinoic acid are bound to specific cellular binding proteins. Two of the major proteins are CRABP-1 and CRABP-2 (Roos et al., Pharmacological reviews: 50, 315-333, 1998). These proteins regulate the intracellular concentration of retinoids by acting as either storage or shuttle proteins in retinoid metabolism. The levels of CRABP protein are regulated by the amount of retinoic acid within the cells. Higher cellular levels of retinoids increase the expression of CRABP-2. Therefore, the amount of this protein in the cells, is a measure of the retinoid activity of the cells. Skin cells contain high levels of CRABP-2 both in the epidermis and the dermis. CRABP-2 response to retinoid administration in fibroblasts in vitro is used as a reproducible measure of retinoid bioactivity that predict human skin responses (Elder et al., J. Invest. Dermatol., 106: 517-521, 1996). Increase in CRABP-2 is also associated with increased epidermal differentiation, and dermal retinoid action. Therefore, in these studies we used CRABP-2 expression of fibroblasts and pig skin epidermis as a measure of retinoid activity leading to increased epidermal differentiation (skin conditioning and dry skin benefit) and dermal collagen and extracellular matrix synthesis (antiaging, anti wrinkling benefits).
To measure the levels of CRABP-2 in the fibroblast and pig skin extracts prepared as described above, the cell supernatant was re-suspended in 4×sample buffer and 10% BME, boiled for 5 minutes and used for western blotting. Equal amounts of protein were loaded onto 16% Tris-glycine gels for CRABP-2 protein analysis by SDS-PAGE and Western Immuno-blotting. The gels were transferred to PVDF membranes and Western Blotting was carried out using monoclonal antibodies to CRABP-2 according to standard procedures. The CRABP-2 protein band was visualized in the Western Blots using the chemiluminescence system obtained from Boehringer Mannheim (Indianopolis, Ind.). The bands in the film were quantified by densitometric scanning, the data from triplicate samples were calculated as % of control and expressed in the following tables as % increase over control (with control as 100%) +/− standard deviation. […]

[3] = Table 2B, 10 μM Resveratrol alone
[4] = Table 2B, 10 μM Retinoic acid alone
[5] = Homo sapiens, Skin fibroblast, Table 2A, 100 nM alone, read-out: % of Control

Compound	effects on CRABP-2 expression (in words) [1]	CRAB-2 production ([2]; Table 2A, 100 nM alone)	% as Control ([2]; Table 2B, 1 μM alone)	% as Control ([2]; Table 3, 100 nM alone)	CRABP-2 production ([2]; Table 3, 100 nM alone)	activity at 0.1 µM [2, 5] [%]	CRABP-2 production ([2]; Table 2B, 1 μM alone)	CRABP-2 expression in skin fibroblasts in combination with resveratrol (in words) [2]	further results
Oc1ccc(/C=C/c2cc(O)cc(O)c2)cc1 [Resveratrol, 5-parahydroxystyryl resorcinol]	only minimal, insignificant effects	–	–	–	–	–	–	–	activity at 50 µM ([1]; Sus scrofa, Experiment 1, 50 μM, topical on pig skin biopsies, read-out: CRABP-2, Alone (% of control, control as 100%)): 143%; activity at 20 µM ([1]; Sus scrofa, Experiment 2, 20 μM, topical on pig skin biopsies, read-out: CRABP-2, Alone (% of control, control as 100%)): 242%; activity at 10 µM ([2]; Homo sapiens, Skin fibroblast, Table 2A, 10 μM alone, read-out: % of Control): 27%; CRAB-2 production ([2]; Table 2A, 10 μM alone): 0.416 +/− 0.12; % as Control [2, 3]: 32 +/− 1%; CRABP-2 production [2, 3]: 0.185
CC1=C(/C=C/C(C)=C/C=C/C(C)=C/C(=O)O)C(C)(C)CCC1 [Retinoic acid]	–	–	–	–	–	–	–	–	activity at 0.001 µM ([2]; Homo sapiens, Skin fibroblast, Table 2A, 1 nM alone, read-out: % of Control): 132%; activity at 0.01 µM ([2]; Homo sapiens, Skin fibroblast, Table 2A, 10 nM alone, read-out: % of Control): 165%; CRAB-2 production ([2]; Table 2A, 1 nM alone): 2.056 +/− 0.50; CRAB-2 production ([2]; Table 2A, 10 nM alone): 2.566 +/− 0.19; % as Control [2, 4]: 574 +/− 60%; CRABP-2 production [2, 4]: 3.27 +/− 0.34; % as Control ([2]; Table 3, 10 nM alone): 266 +/− 80%; CRABP-2 production ([2]; Table 3, 10 nM alone): 1.201 +/− 0.36
CCCCC/C=C\C/C=C\CCCCCCCC(=O)OC/C=C(C)/C=C/C=C(C)/C=C/C1=C(C)CCCC1(C)C [Retinyl Linoleate]	–	0.88 +/− 0.23	112 +/− 75%	253 +/− 127%	1.141 +/− 0.57	–	–	–	% of Control ([2]; Table 2A, 100 nM alone): 57 +/− 14%
CC(=O)OC/C=C(C)/C=C/C=C(C)/C=C/C1=C(C)CCCC1(C)C [Retinyl Acetate]	–	0.876 +/− 0.20	178 +/− 102%	124 +/− 42%	0.561 +/− 0.19	56	1.01 +/− 0.58	–	CRABP-2 expression in skin fibroblasts (in words) ([2]; Low levels (100 nm), either alone or in combination with resveratrol): ineffective; CRABP-2 expression in skin fibroblasts (in words) ([2]; higher levels (Table 2B), in the presence of reveratrol): stimulated CRABP-2 expression
CC1=C(/C=C/C(C)=C/C=C/C(C)=C/CO)C(C)(C)CCC1 [Retinol]	significantly higher stimulation	–	270 +/− 73%	308 +/− 108%	1.387 +/− 0.49	–	1.54 +/− 0.41	effective	activity at 5 µM ([1]; Sus scrofa, Experiment 2, 5 μM, topical on pig skin biopsies, read-out: CRABP-2, Alone (% of control, control as 100%)): 345%
CCCCCCCCCCCCCCCC(=O)OC/C=C(C)/C=C/C=C(C)/C=C/C1=C(C)CCCC1(C)C [Retinyl Palmitate]	–	0.376 +/− 0.11	503 +/− 260%	254 +/− 101%	1.143 +/− 0.45	25	2.87 +/− 1.48	not effective	–
